The supplement of paper PMC5412046
Structures can show the parent of a compound that is named as a salt.

How the values were obtained:
SB.mhdgc-1 = test: AC50 for growth inhibition (viability) (log10 M); higher = less potent; details: SB.mhdgc-1 (hereditary c.1380delA CDH1 gastric cancer)
Method in brief: (§1)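 Hereditary or sporadic patient-derived gastric cancer cells (500 cells in 5 μL medium per 1536 well) received 23 nL compound in DMSO by pintool. Dosing was 11 threefold dilutions starting at a final 46 μM. After 48 h, CellTiter-Glo was added for 30 min at room temperature and luminescence read on a ViewLux. Log half-maximal activity concentration came from a four-parameter fit of DMSO-normalised viability, keeping only high-quality curve classes.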

SB.msgc-1 = test: as above; details: SB.msgc-1 (sporadic gastric cancer)
Method in brief: as §1

SMILES	AC50 for growth inhibition (log10 M) (SB.mhdgc-1)	AC50 for growth inhibition (log10 M) (SB.msgc-1)
COc1ccc(F)c(F)c1C(=O)c1cnc(NC2CCN([S+](C)(=O)[O-])CC2)nc1N [R-547]	-5.73	-6.03
Cc1nnc(C(C)C)n1[C@@H]1C[C@H]2CC[C@@H](C1)N2CC[C@H](NC(=O)C1CCC(F)(F)CC1)c1ccccc1 [Maraviroc]	-5.18	-4.78
C[N]1C=NC=C1[C@@](N)(C2=CC=C(Cl)C=C2)C3=CC=C4N(C)C(=O)\C=C(\C5=CC=CC(=C5)Cl)C4=C3 [Tipifarnib]	-4.83	-4.83
C[N]1C=C(C2=C1C=CC=C2)\C3=C(\C(=O)NC3=O)C4=C5CC(CN)CC[N]5C6=C4C=CC=C6 (stereo not drawn) [Ro-31-8425]	-4.88	-4.78
COc1ccc2[nH]cc(CCNC(C)=O)c2c1 [Melatonin]	-5.33	-5.83
C[N+](C)([O-])CCNc1ccc(NCC[N+](C)(C)[O-])c2c1C(=O)c1c(O)ccc(O)c1C2=O [Banoxantrone]	-4.78	-4.88
COc1ccc(C(=O)CC2(O)C(=O)Nc3c(Cl)ccc(Cl)c32)cc1 (stereo not drawn) [YK-4-279]	-5.78	-5.63
OC1=CC2=C(C(=C1)O)C(=O)\C(=C(/O2)C3=CC(=C(O)C=C3)O)O [Quercetine]	-5.13	-4.68
CCC(CCCC)COC(=O)C(\C#N)=C(\c1ccccc1)c2ccccc2 (stereo not drawn) [Octocrylene]	-4.88	-4.88
COc1ccc(-c2cc3nccn3c(Nc3ncccc3C(N)=O)n2)cc1OC [BAY61-3606]	-5.53	-4.98
CCOc1cc2ncc(C#N)c(Nc3ccc(F)c(Cl)c3)c2cc1NC(=O)/C=C/CN(C)C [Pelitinib]	-7.38	-7.43
CN[C@@H]1C[C@H]2O[C@@](C)([C@@H]1OC)n1c3ccccc3c3c4c(c5c6ccccc6n2c5c31)C(=O)N[C@H]4O [7-Hydroxystaurosporine]	-6.28	-5.93
O=C(/C=C/c1cccc([S+](=O)([O-])Nc2ccccc2)c1)NO [Belinostat]	-5.02	-5.47
CN1\C(=C(O)/C2=C(C=C(Cl)S2)[S+]1([O-])=O)C(=O)NC3=NC=CC=C3 [Lornoxicam]	-5.88	-5.43
COCCCC/C(=N\OCCN)c1ccc(C(F)(F)F)cc1 [Fluvoxamine maleate]	-4.63	-4.88
N[S+](=O)([O-])c1ccc(Nc2nc(OCC3CCCCC3)c3[nH]cnc3n2)cc1 [NU-6102]	-4.68	-4.83
CN(C)c1ccc(O)c2c1C[C@H]1C[C@H]3[C@H](N(C)C)C(O)=C(C(N)=O)C(=O)[C@@]3(O)C(O)=C1C2=O [Minocycline]	-5.43	-5.38
CC(=O)Nc1sc2c(c1-c1nc3ccccc3s1)CNC2	-6.08	-4.68
O=C(NC[C@H](O)CO)c1ccncc1Nc1ccc(I)cc1F [Pimasertib]	-4.73	-6.38
